Reference: patent US20090047214A1, “Novel methylation marker” (OncoMethylome Sciences S.A., priority 2006, published 2009)

How the values were obtained:
[1] = tested on: WRN RNA transcript and protein; assay: Reactivation of WRN expression in WRN-hypermethylated cancer cell lines (RT-PCR, western blot, immunofluorescence); type: cell-based, human; conditions: HCT-116, COLO-205, MDA-MB-231 and U937 cell lines; 1 μM for 3 days
Description: (§1) The eleven human cancer cell lines examined in this study were obtained from the American Type Culture Collection (ATCC) (Rockland, Md., USA) and the German Collection of Microorganisms and Cell Cultures (DSMZ, Braunschweig, Germany). The cell lines represented three different types of malignancies, colon (HCT-116, COLO-205), breast (MCF-7, MDA-MB-468, MDAMB-231) and leukaemia (HL-60, KG1a, U937, REH, Jurkat, K562). Cell lines were maintained in appropriate media and treated with 1 μM 5-aza-2′-deoxycytidine (Sigma) for 3 days to achieve demethylation, as previously described (Herman et al., 1998; Ropero et al., 2004). WS−/− cells (AG11395) were obtained from the Coriel Cell Repositories (Camden, N.J., USA). The collection of primary tumor samples analyzed has been described elsewhere (Esteller et al., 2001; Ropero et al., 2004).
RNA was isolated using TRIzol (Life Technologies, Gaithersburg, Md., USA). 2 μg of RNA was reverse-transcribed using SuperScript II reverse transcriptase (Gibco/BRL) and amplified using specific primers for WRN (forward: 5′-GCATGTGTTCGGAAGAGTGTTT-3-(SEQ ID. NO: 6), reverse: 5′-TGACATGGAAGAAACGTGGAA-3 (SEQ ID. NO: 7)) and for GAPDH. […] Cell lysates for protein analysis were prepared and analyzed by western blotting using the WRN antibody ab200 (Rabbit Polyclonal, Abcam). […]

[2] = tested on: WRN-associated exonuclease activity in U937 cells; assay: Exonuclease activity assay in WRN-immunoprecipitated cell extracts; type: cell-based, human; conditions: 1 μM for 3 days
Description: as §1
The exonuclease enzymatic activity was measured as previously described (Brosh et al., 2001). […] The digestion products of these reactions were separated on 15% denaturing polyacrylamide gels, visualized using a PhosphorImager (Molecular Dynamics), and quantitated using ImageQuant software (Molecular Dynamics).

[3] = tested on: MCF-7 cells (unmethylated WRN promoter); assay: Apoptosis by flow cytometry; type: cell-based, human; conditions: MCF-7, WRN unmethylated
Description: (§2) The percentage of apoptotic cells was determined by flow cytometry using Vybrant® Apoptosis Assay Kit #4-YO-PRO®-1/propidium iodide (Molecular Probes/Invitrogen). Briefly, cells were washed twice with ice cold PBS and resuspended in PBS containing YO-PRO®-1/propidium iodide. Apoptotic cells were identified by flow cytometry after 20 min of incubation. Cytogenetic assay was performed as previously described (Herranz et al., 2006) analyzing one-hundred metaphases for each experimental condition.

[4] = tested on: MDA-MB-231 cells (WRN promoter hypermethylation); assay: Apoptosis by flow cytometry; type: cell-based, human; conditions: MDA-MB-231, WRN hypermethylated; increasing concentrations
Description: as §2

[5] = tested on: U937 cells (WRN promoter hypermethylation); assay: Apoptosis by flow cytometry; type: cell-based, human; conditions: U937, WRN hypermethylated; increasing concentrations
Description: as §2

[6] = tested on: lymphoblastoid cell line from a WS patient (WS-/-); assay: Apoptosis by flow cytometry; type: cell-based, human; conditions: WS patient lymphoblastoid cells, positive control
Description: as §1, §2

[7] = tested on: WRN-transfected MDA-MB-231 cells; assay: Apoptosis by flow cytometry; type: cell-based, human; conditions: MDA-MB-231 transfected with WRN
Description: as §2
(§3) The WRN coding sequence corresponding to the cDNA from a BLCL lymphoblastoid-EBV immortalized cell line was amplified by PCR and directly cloned into the pGEM-T Easy Vector (Promega, Winsconsin USA). The WRN insert was subcloned into the pEGFP-N1 expression vector (Invitrogen) and confirmed by sequencing. For transfection experiments we used the pEGFP-N1 vector containing the WRN gene, or the pEGFP-N1 empty vector. Transfection of MDA-MB-231 and U937 cells was performed by electroporating […] in 0.8 ml PBS with 40 μg of the vector at 250 V and 975 μF. After electroporation, cells were washed with PBS and seeded with 10^6 cells/ml in fresh medium containing 20% FBS. Transfected cells were selected by the addition of G418 (600 μg/ml).

[8] = tested on: WRN-transfected U937 cells; assay: Apoptosis by flow cytometry; type: cell-based, human; conditions: U937 transfected with WRN
Description: as §2, §3

[9] = tested on: lymphoblastoid cells from a WS patient; assay: Cytogenetic chromosomal breakage analysis; type: cell-based, human; conditions: metaphases
Description: as §1, §2

[10] = tested on: HL60 cells (unmethylated WRN promoter); assay: Cytogenetic chromosomal breakage analysis; type: cell-based, human; conditions: metaphases
Description: as §2

[11] = tested on: MCF-7 cells (unmethylated WRN promoter); assay: Cytogenetic chromosomal breakage analysis; type: cell-based, human; conditions: MCF-7, WRN unmethylated; metaphases
Description: as §2

[12] = tested on: MDA-MB-231 cells (WRN aberrant methylation); assay: Cytogenetic chromosomal breakage analysis; type: cell-based, human
Description: as §2

[13] = tested on: WRN-transfected MDA-MB-231 cells; assay: Cytogenetic chromosomal breakage analysis; type: cell-based, human; design: dose or concentration left out as unconfirmed
Description: as §2, §3

[14] = tested on: primary colorectal tumors; assay: Overall survival of colorectal cancer patients treated with irinotecan, by WRN methylation status (Kaplan-Meier); type: in vivo, human; conditions: WRN methylated colon tumors (n=45)
Description: Contingency tables were analyzed by Fisher's exact test. Overall survival curves were estimated by the Kaplan-Meier method and were compared with the use of the log-rank test. All statistical analyses were performed using the SPSS version 10.1 program (SPSS Inc, Chicago, Ill.).

Row | Compound | induction of apoptosis [3] | induction of apoptosis [4] | induction of apoptosis [5] | induction of apoptosis [6] | induction of apoptosis [7] | induction of apoptosis [8] | other results
1 | Nc1ncn([C@H]2C[C@H](O)[C@@H](CO)O2)c(=O)n1 [5-aza-2′-deoxycytidine] | – | – | – | – | – | – | expression of WRN RNA transcript and protein [1]: restored the expression; WRN-associated exonuclease activity [2]: significant increase
2 | CC[C@@]1(O)C(=O)OCc2c1cc1n(c2=O)Cc2cc3ccccc3nc2-1 [camptothecin] | markedly resistant | optimal inductors of apoptosis | optimal inductors of apoptosis | same phenomena | resistant to the apoptosis | resistant to the apoptosis | chromosomal breakage [9]: extremely sensitive; chromosomal breakage [10]: minimal chromosomal breakage; chromosomal breakage [11]: minimal chromosomal breakage; chromosomal breakage ([12]; MDA-MB-231, WRN methylated, metaphases): extremely sensitive; chromosomal breakage ([13]; MDA-MB-231 transfected with WRN, metaphases): acquired a resistance
3 | CCc1c2c(nc3ccc(OC(=O)N4CCC(N5CCCCC5)CC4)cc13)-c1cc3c(c(=O)n1C2)COC(=O)[C@]3(O)CC [irinotecan] | – | – | – | – | – | – | median time to the death of the patient [14]: 39.4 months
4 | CO[C@@]12[C@H](COC(N)=O)C3=C(C(=O)C(C)=C(N)C3=O)N1C[C@@H]1N[C@@H]12 [mitomycin C] | markedly resistant | optimal inductors of apoptosis | optimal inductors of apoptosis | same phenomena | resistant to the apoptosis | resistant to the apoptosis | chromosomal breakage ([12]; MDA-MB-231 (empty vector), 50 mg/ml): massive breakage; chromosomal breakage ([13]; MDA-MB-231 transfected with the WRN gene): resistance to the genome damage
